Data as given in US20220330549A1, “USE OF N-BENZYLBENZAMIDE-BASED COMPOUND AS HERBICIDE” (Northwest A&F University, priority 2020, published 2022).

Columns and labels:
Format in all cases: in vivo
[1] = test system: Gramineae; assay: Post-emergence herbicidal activity test in a paddy field; design: key: level scale; higher level = more weed left vs blank control; conditions: 150 g a.i./ha (penoxsulam control 250 g(a.i.)/h)
Procedure: (§1) The post-emergence herbicidal activity test was performed in a paddy field with some of the N-benzylbenzamide-based compounds of general formula I or II with reference to the method of GB/T 17980.40-2000. […] Spray treatments were performed in the stage where 4 leaves to 5 leaves were grown for the rice seedlings which was about 1 month after the sowing. Representative compounds in the examples were used to prepare emulsifiable concentrates (10%), and spray treatments were performed with the concentrates in water at a dosage of 150 g(a.i.)/ha, and repeated 4 times for each treatment, and the area was 50 m^2. 25 g/L of penoxsulam suspension was used as a control agent and applied at a dosage of 250 g(a.i.)/h. The results were investigated by a value estimating survey method 15 days and 30 days after the treatments. The relative weed population quantities were estimated by comparing each agent treated area with an adjacent blank control area, and the results of which were investigated with the following grading standard method using the overall coverage of the weed population as an indicator.
(§2) Level 2: equivalent to 0 to 2.5% of the weed in the blank control area;
(§3) Level 3: equivalent to 2.6 to 5% of the weed in the blank control area;
(§4) Level 4: equivalent to 5.1 to 10% of the weed in the blank control area;
(§5) Level 5: equivalent to 10.1 to 15% of the weed in the blank control area;
(§6) Level 6: equivalent to 15.1 to 25% of the weed in the blank control area;
(§7) Level 7: equivalent to 25.1 to 35% of the weed in the blank control area;
(§8) Level 8: equivalent to 35.1 to 67.5% of the weed in the blank control area; and
(§9) Level 9: equivalent to 67.6 to 100% of the weed in the blank control area.

[2] = test system: Cyperaceae; assay: as above; design: key: level scale; higher level = more weed left vs blank control; conditions: 150 g a.i./ha (penoxsulam control 250 g(a.i.)/h)
Procedure: as §1, §2, §3, §4, §5, §6, §7, §8, §9

[3] = test system: Broadleaf weed; assay: as above; design: key: level scale; higher level = more weed left vs blank control; conditions: 150 g a.i./ha (penoxsulam control 250 g(a.i.)/h)
Procedure: as §1, §2, §3, §4, §5, §6, §7, §8, §9

[4] = test system: Digitaria sanguinalis; assay: Herbicidal activity test for indoor pre-emergence soil treatment; design: key: 1-9 levels; higher = more weed remaining vs blank control; conditions: 150 g a.i./ha, visual inspection 21 days after treatment
Procedure: (§10) The herbicidal activity test for indoor pre-emergence soil treatment was performed with some of the N-benzylbenzamide-based compounds of general formula I or II with reference to the method of NY/T 1155.3-2006. Neutral sandy loam soil having an organic content of ≤2% was added to fill ⅘ of the pot, and the soil was completely moistened by infiltrating irrigation from the bottom of the pot. The seeds of the test weed were evenly spread on the soil surface, and then covered by 0.5 cm to 2.0 cm of soil depending on the seed size. Representative compounds in the examples were used to prepare emulsifiable concentrates (10%), and spray treatments to the soil were performed 24 hours after the sowing with the test agents diluted with water, at a spraying dosage of 150 g(a.i.)/ha. Then, the results were investigated by visual inspection 21 days after the treatments. The herbicidal activity of the agent was evaluated on a scale of 1-9 levels according to the symptoms and severity of damage to the test weeds.
as §2, §3, §4, §5, §6, §7, §8, §9

[5] = test system: Amaranthus retroflexus; assay: as above; design: key: 1-9 levels; higher = more weed remaining vs blank control; conditions: 150 g a.i./ha, visual inspection 21 days after treatment
Procedure: as §10, §2, §3, §4, §5, §6, §7, §8, §9

[6] = test system: Digitaria sanguinalis; assay: Field test for weed control in a corn field; conditions: 150 g a.i./ha, after treatment
Procedure: (§11) The weed control efficacy field test was performed in a corn field with some of the N-benzylbenzamide-based compounds of general formula I or II with reference to the method of GB/T 17980.42-2000. […] Spray treatments were performed in the stage where 2 leaves to 5 leaves were grown for the corns after the sowing. Representative compounds in the examples were used to prepare emulsifiable concentrates (10%), and spray treatments were performed with the concentrates in water at a dosage of 150 g(a.i.)/ha, and repeated 4 times for each treatment, and the area was 20 m^2. Oil dispersion with 25% of mesotrione was used as a control agent and applied at a dosage of 150 g(a.i.)/h. […] The herbicidal activities of the agents were evaluated on a scale of 1-9 levels according to the symptoms and severity of damage to the test weeds.
as §2, §3, §4, §5, §6, §7, §8, §9

[7] = test system: green bristlegrass; assay: Field test for weed control in a corn field; conditions: 150 g a.i./ha, after treatment
Procedure: as §11, §2, §3, §4, §5, §6, §7, §8, §9

[8] = test system: nutgrass flatsedge; assay: Field test for weed control in a corn field; conditions: 150 g a.i./ha, after treatment
Procedure: as §11, §2, §3, §4, §5, §6, §7, §8, §9

[9] = test system: Portulaca oleracea; assay: Field test for weed control in a corn field; conditions: 150 g a.i./ha, after treatment
Procedure: as §11, §2, §3, §4, §5, §6, §7, §8, §9

[10] = test system: Solanum nigrum; assay: Field test for weed control in a corn field; conditions: 150 g a.i./ha, 30 days after treatment
Procedure: as §11, §2, §3, §4, §5, §6, §7, §8, §9

[11] = test system: goosegrass; assay: Field test for weed control in a corn field; conditions: 150 g a.i./ha, after treatment
Procedure: as §11, §2, §3, §4, §5, §6, §7, §8, §9

[12] = test system: Chenopodium album; assay: Field test for weed control in a corn field; conditions: 150 g a.i./ha, after treatment
Procedure: as §11, §2, §3, §4, §5, §6, §7, §8, §9

[13] = test system: Amaranthus retroflexus; assay: Field test for weed control in a corn field; conditions: 150 g a.i./ha, 30 days after treatment
Procedure: as §11, §2, §3, §4, §5, §6, §7, §8, §9

[14] = test system: Convolvulus arvensis; assay: Field test for weed control in a corn field; conditions: 150 g a.i./ha, after treatment
Procedure: as §11, §2, §3, §4, §5, §6, §7, §8, §9

[15] = test system: Barnyard grass; assay: Field test for weed control in a corn field; conditions: 150 g a.i./ha, 30 days after treatment
Procedure: as §11, §2, §3, §4, §5, §6, §7, §8, §9

[16] = test system: Acalypha australis; assay: Field test for weed control in a corn field; conditions: 150 g a.i./ha, after treatment
Procedure: as §11, §2, §3, §4, §5, §6, §7, §8, §9

[17] = test system: Humulus scandens; assay: Herbicidal activity test for indoor post-emergence spraying on stems and leaves; design: key: grade level by weed remaining vs blank control, e.g. 5 = 10.1-15%; conditions: 150 g a.i./ha, visual inspection 21 days after treatment
Procedure: (§12) The post-emergence herbicidal activity test was performed with some of the N-benzylbenzamide-based compounds of general formula I or II with reference to the method of NY/T 1155.4-2006. […] After the sowing, the weed was moved to a greenhouse for regular cultivation. […] Then, the results were investigated by visual inspection 21 days after the treatments. […] Level 5: equivalent to 10.1 to 15% of the weed in the blank control area; Level 6: equivalent to 15.1 to 25% of the weed in the blank control area; Level 7: equivalent to 25.1 to 35% of the weed in the blank control area; Level 8: equivalent to 35.1 to 67.5% of the weed in the blank control area; and […]

[18] = test system: Digitaria sanguinalis; assay: as above; design: key: grade level by weed remaining vs blank control, e.g. 5 = 10.1-15%; conditions: 150 g a.i./ha, visual inspection 21 days after treatment
Procedure: as §12

[19] = test system: green bristlegrass; assay: as above; design: key: grade level by weed remaining vs blank control, e.g. 5 = 10.1-15%; conditions: 150 g a.i./ha, visual inspection 21 days after treatment
Procedure: as §12

[20] = test system: Amaranthus retroflexus; assay: as above; design: key: grade level by weed remaining vs blank control, e.g. 5 = 10.1-15%; conditions: 150 g a.i./ha, visual inspection 21 days after treatment
Procedure: as §12

[21] = test system: Barnyard grass; assay: as above; design: key: grade level by weed remaining vs blank control, e.g. 5 = 10.1-15%; conditions: 150 g a.i./ha, visual inspection 21 days after treatment
Procedure: as §12

[22] = test system: Piemarker; assay: as above; design: key: grade level by weed remaining vs blank control, e.g. 5 = 10.1-15%; conditions: 150 g a.i./ha, visual inspection 21 days after treatment
Procedure: as §12

[23] = test system: green bristlegrass; assay: Herbicidal activity test for indoor pre-emergence soil treatment; design: key: level 1-9; higher = more weed remaining vs blank control; conditions: 150 g a.i./ha, visual inspection 21 days after treatment
Procedure: as §10, §2, §3, §4, §5, §6, §7, §8, §9

[24] = test system: Barnyard grass; assay: as above; design: key: level 1-9; higher = more weed remaining vs blank control; conditions: 150 g a.i./ha, visual inspection 21 days after treatment
Procedure: as §10, §2, §3, §4, §5, §6, §7, §8, §9

[25] = test system: Piemarker; assay: as above; design: key: level 1-9; higher = more weed remaining vs blank control; conditions: 150 g a.i./ha, visual inspection 21 days after treatment
Procedure: as §10, §2, §3, §4, §5, §6, §7, §8, §9

[26] = test system: Humulus scandens; assay: as above; conditions: 150 g a.i./ha, visual inspection 21 days after treatment
Procedure: as §10, §2, §3, §4, §5, §6, §7, §8, §9

Row | Compound | Herbicidal activity 15 days after treatment Gramineae [1] | Herbicidal activity 30 days after treatment Gramineae [1] | Herbicidal activity 15 days after treatment Cyperaceae [2] | Herbicidal activity 30 days after treatment Cyperaceae [2] | Herbicidal activity 15 days after treatment Broadleaf weed [3] | Herbicidal activity 30 days after treatment Broadleaf weed [3] | Herbicidal Activity Digitaria sanguinalis [4] | Herbicidal Activity Amaranthus retroflexus [5] | Post-emergence weed control effect, Digitaria sanguinalis [6] | Post-emergence weed control effect, Green bristlegrass [7] | Post-emergence weed control effect, Nutgrass flatsedge [8] | Post-emergence weed control effect, Portulaca oleracea [9] | Post-emergence weed control effect, Solanum nigrum [10] | Post-emergence weed control effect, Goose grass [11] | Post-emergence weed control effect, Chenopodium album [12] | Post-emergence weed control effect, Amaranthus retroflexus [13] | Post-emergence weed control effect, Convolvulus arvensis [14] | Post-emergence weed control effect, Barnyard grass [15] | Post-emergence weed control effect, Acalypha australis [16] | Herbicidal Activity Humulus scandens [17] | further results
1 | COc1ccccc1C(=O)NCc1cccc(F)c1 [Compound A01, N-(3-fluorobenzylamine)-2-methoxybenzamide] | 2 (equivalent to 0 to 2.5% of the weed in the blank control area) | 2 (equivalent to 0 to 2.5% of the weed in the blank control area) | 1 | 2 (equivalent to 0 to 2.5% of the weed in the blank control area) | 1 | 2 (equivalent to 0 to 2.5% of the weed in the blank control area) | 1 | 3 (equivalent to 2.6 to 5% of the weed in the blank control area) | 2 (equivalent to 0 to 2.5% of the weed in the blank control area) | 1 | 2 (equivalent to 0 to 2.5% of the weed in the blank control area) | 1 | 2 (equivalent to 0 to 2.5% of the weed in the blank control area) | 2 (equivalent to 0 to 2.5% of the weed in the blank control area) | 1 | 1 | 1 | 2 (equivalent to 0 to 2.5% of the weed in the blank control area) | 2 (equivalent to 0 to 2.5% of the weed in the blank control area) | 1 | Herbicidal Activity Digitaria sanguinalis [18]: 1; Herbicidal Activity Green bristlegrass [19]: 1; Herbicidal Activity Amaranthus retroflexus [20]: 1; Herbicidal Activity Barnyard grass [21]: 1; Herbicidal Activity Piemarker [22]: 1; Herbicidal Activity Green bristlegrass [23]: 1; Herbicidal Activity Barnyard grass [24]: 1; Herbicidal Activity Piemarker [25]: 3 (equivalent to 2.6 to 5% of the weed in the blank control area); Herbicidal Activity Humulus scandens [26]: 4 (equivalent to 5.1 to 10% of the weed in the blank control area)
2 | CS(=O)(=O)c1cc(C(F)(F)F)ccc1C(=O)c1cnoc1C1CC1 [Isoxaflutole, reference compound] |  |  |  |  |  |  | 1 | 1 |  |  |  |  |  |  |  |  |  |  |  |  | Herbicidal Activity Green bristlegrass [23]: 1; Herbicidal Activity Barnyard grass [24]: 1; Herbicidal Activity Piemarker [25]: 1; Herbicidal Activity Humulus scandens [26]: 1
3 | CS(=O)(=O)c1ccc(C(=O)C2C(=O)CCCC2=O)c([N+](=O)[O-])c1 [Mesotrione, reference compound] |  |  |  |  |  |  |  |  | 2 (equivalent to 0 to 2.5% of the weed in the blank control area) | 1 | 1 | 1 | 1 | 2 (equivalent to 0 to 2.5% of the weed in the blank control area) | 1 | 1 | 1 | 1 | 2 (equivalent to 0 to 2.5% of the weed in the blank control area) | 1 | Herbicidal Activity Digitaria sanguinalis [18]: 1; Herbicidal Activity Green bristlegrass [19]: 1; Herbicidal Activity Amaranthus retroflexus [20]: 1; Herbicidal Activity Barnyard grass [21]: 1; Herbicidal Activity Piemarker [22]: 1
4 | COc1cnc(OC)n2nc(NS(=O)(=O)c3c(OCC(F)F)cccc3C(F)(F)F)nc12 [Penoxsulam, reference compound] | 2 (equivalent to 0 to 2.5% of the weed in the blank control area) | 1 | 2 (equivalent to 0 to 2.5% of the weed in the blank control area) | 2 (equivalent to 0 to 2.5% of the weed in the blank control area) | 2 (equivalent to 0 to 2.5% of the weed in the blank control area) | 1 |  |  |  |  |  |  |  |  |  |  |  |  |  |  | 
